This is an account of results in publication PMC8432876, “Acetylcholine esterase inhibitory activity of green synthesized nanosilver by naphthopyrones isolated from marine-derived Aspergillus niger” (PLoS ONE, 2021).

In the assay the target is acetylcholine esterase AChE (Homo sapiens, UniProt P22303). The assay is described as follows: biochemical. Type of assay: biochemical. Particulars: Ellman's method; for IC50: AChEI activity. The method, then:
Acetylcholine esterase inhibitory activity of isolated compounds and their synthesized silver nanoparticles were assessed using Ellman’s method as previously prescribed.
Acetylcholine esterase inhibitory (AChEI) activity was assessed by using Ellman’s method.
In general terms: In Ellman's method for cholinesterases, released thiocholine reacts with DTNB.

Where only a bound is given, the exact number is not on record here.

Chain of acetylcholine esterase AChE (P22303 32-614): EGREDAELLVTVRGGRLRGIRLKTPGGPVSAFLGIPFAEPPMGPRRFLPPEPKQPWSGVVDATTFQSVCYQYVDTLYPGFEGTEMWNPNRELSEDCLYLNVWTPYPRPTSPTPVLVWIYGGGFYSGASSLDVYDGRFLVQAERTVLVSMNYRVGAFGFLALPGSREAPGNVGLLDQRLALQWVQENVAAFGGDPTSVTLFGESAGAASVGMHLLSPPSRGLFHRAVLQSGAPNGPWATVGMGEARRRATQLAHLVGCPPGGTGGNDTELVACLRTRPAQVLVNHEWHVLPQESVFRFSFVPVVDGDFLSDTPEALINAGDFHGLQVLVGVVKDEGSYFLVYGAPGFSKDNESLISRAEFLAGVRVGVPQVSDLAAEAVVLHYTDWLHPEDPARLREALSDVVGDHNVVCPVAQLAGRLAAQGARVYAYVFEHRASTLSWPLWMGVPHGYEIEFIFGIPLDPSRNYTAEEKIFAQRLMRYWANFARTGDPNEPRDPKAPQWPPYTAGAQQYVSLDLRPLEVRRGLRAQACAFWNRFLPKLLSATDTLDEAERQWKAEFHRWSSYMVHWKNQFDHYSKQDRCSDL

`NC(=O)c1c[nH]c(Cc2ccccc2)cc1=O` [Asperginin A (7), Aspernigrin A] returned a half-maximal inhibitory concentration (IC50) of 20.2 ± 3.03 µM.
On the same count and under the same terms, to `COc1cc(OC)c2c(O)c3c(=O)cc(C)oc3c(-c3c(OC)cc4cc5oc(C)cc(=O)c5c(O)c4c3OC)c2c1` [Aurasperone A (3), Aurasperone A] belongs 4.9 ± 2.16 µM.
Take `COc1cc(OC)c2c(c1)cc(O)c1c(=O)cc(C)oc12` [Flavasperone (1), Flavasperone]: the IC50 was above 25 µM and the “AChE inhibitory activity (in words)” value is reported as “didn’t show any inhibitory activity”.
`COc1cc(OC)c2c(O)c3c(=O)cc(C)oc3c(-c3c(OC)cc4cc(O)c5c(=O)cc(C)oc5c4c3OC)c2c1` [Fonsecinone A (4), Fonsecinone A] showed a concentration for half-maximal inhibition (IC50) of 7.52 ± 2.16 µM.
As for `COc1cc(OC)c2c(O)c3c(=O)cc(C)oc3cc2c1` [Rubrofusarin B (2), Rubrofusarin B], the concentration for half-maximal inhibition (IC50) stood at 13.9 ± 2.16 µM and the “AChE inhibitory activity (in words)” value was “moderate inhibitory activity”.

In general, IC50 refers to the concentration at which inhibition is half-maximal. Read a low IC50 as inhibition by little substance.
